target: human aquaporin 9 (Homo sapiens (Human), UniProt O43315); test: Calcein quenching fluostar assay (inhibition of human aquaporin 9); format: cell-based; conditions: Human AQP9 cell line; example compounds used as 1 mM stock solutions in DMSO
Description: Calcein Quenching Fluostar Assay
A calcein quenching fluostar assay was performed in order to investigate the biological activity of the newly synthesized examples 1 to 57. This type of assay is disclosed in J. Biol. Chem., 2011, 286, 44319-44325 and Am. J. Physiol. Renal Physiol. (2010), 298, F224-230.
1) Two days prior to commencement of the assay, seed 10,000 cells/well of 96 well black clear bottom plate (Greiner Poly-lysin plate). A 1:1 mix of Dulbecco's Modified Eagle's Medium: Nutrient Mixture F-12 (DMEM: F12) was obtained from Gibco. Tetracycline stock of 5 mg/ml in 96% ethanol is used. Medium: DMEM/F12/10% Donor Bovine Serum, Human AQP9 cell line+1:270,000 tetracyclin, mouse AQP9 cell line+1:2,700,000 tetracycline.
2) Day of assay: Flick/slam off the medium and add 50 μl/well of loading solution: 5 ml DMEM/F12/10% Donor Bovine Serum, 25 μl Calcein AM—from freshly dissolved aliquot in 50 μl DMSO (VWR #734-1434), and 100 μl Probenecid.
3) Incubate the well for 90 minutes at 37° C.
4) Perform one wash with 75 μl wash buffer.
5) Add 75 μl of an example compound prepared in wash buffer per well.
Example compounds are prepared in 500 μl U bottom PP plates (NUNC). 2.7 μl Substance in DMSO are added to row A; 180 μl of wash buffer+1% DMSO are added to rows B—H. 90 μl from row A are transferred and mixed with all other wells (up to row G) to make a 3-fold dilution series.
6) Assay in FLUOstar Optima at 25° C. Settings buffer addition at 135 μl/seconds, add 75 μl/well, record time course for 30 seconds, add sucrose buffer 3.6 seconds into recording.
7) Normalization to initial in Excel.
8) Fit to “exponential decay” function in GraphPad Prism 5.0, then arrange half live shrinking values according to wells and fit dose-response curves.

human aquaporin 9, sequence (O43315 whole entry): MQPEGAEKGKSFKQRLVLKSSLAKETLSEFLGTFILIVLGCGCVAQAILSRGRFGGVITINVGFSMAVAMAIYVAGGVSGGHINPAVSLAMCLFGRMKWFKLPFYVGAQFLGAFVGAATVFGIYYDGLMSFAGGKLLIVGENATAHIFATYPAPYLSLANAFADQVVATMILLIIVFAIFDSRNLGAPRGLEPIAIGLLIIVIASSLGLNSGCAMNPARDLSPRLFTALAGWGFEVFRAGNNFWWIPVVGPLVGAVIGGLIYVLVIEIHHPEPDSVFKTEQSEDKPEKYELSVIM

Structure (SMILES) | EC50 [nM] | pEC50 in the inhibition of human aquaporin 9
CCn1c(SCC(=O)Nc2nnc(-c3ccc(OCCOC)cc3)s2)nnc1C(C)C [Example 31, 2-{[4-ethyl-5-(propan-2-yl)-4H-1,2,4-triazol-3-yl]sulfanyl}-N-{5-[4-(2-methoxyethoxy)phenyl]-1,3,4-thiadiazol-2-yl}acetamide] | 37 | –
CCc1nnc(SCC(=O)Nc2nnc(-c3ccc(C#N)cc3)s2)n1CC [Example 32, N-[5-(4-cyanophenyl)-1,3,4-thiadiazol-2-yl]-2-[(4,5-diethyl-4H-1,2,4-triazol-3-yl)sulfanyl]acetamide] | 43 | –
CCc1nnc(SCC(=O)Nc2nnc(-c3ccc(C(F)(F)F)cc3)s2)n1CC [Example 33, 2-[(4,5-diethyl-4H-1,2,4-triazol-3-yl)sulfanyl]-N-[5-(4-(trifluoromethyl)phenyl)-1,3,4-thiadiazol-2-yl]acetamide] | 119 | –
CCc1nnc(SCC(=O)Nc2nnc(-c3ccc(OC(C)C)cc3)s2)n1CC [Example 34, 2-[(4,5-diethyl-4H-1,2,4-triazol-3-yl)sulfanyl]-N-[5-(4-isopropoxyphenyl)-1,3,4-thiadiazol-2-yl]acetamide] | 55 | –
CCc1nnc(SCC(=O)Nc2nnc(-c3ccc(Cl)cc3)s2)n1CC [Example 35, N-[5-(4-chlorophenyl)-1,3,4-thiadiazol-2-yl]-2-[(4,5-diethyl-4H-1,2,4-triazol-3-yl)sulfanyl]acetamide] | 54 | –
CCc1nnc(SCC(=O)Nc2nnc(-c3ccc(OC)cc3)s2)n1C1CC1 [Example 36, 2-[(4-cyclopropyl-5-ethyl-4H-1,2,4-triazol-3-yl)sulfanyl]-N-[5-(4-methoxyphenyl)-1,3,4-thiadiazol-2-yl]acetamide] | 51 | 7.3
CCn1c(Cc2cccc(F)c2)nnc1SCC(=O)Nc1nnc(-c2ccc(OC)cc2)s1 [Example 37, 2-[(4-ethyl-5-(3-fluorobenzyl)-4H-1,2,4-triazol-3-yl)sulfanyl]-N-[5-(4-methoxyphenyl)-1,3,4-thiadiazol-2-yl]acetamide] | 132 | 6.9
CCn1c(SCC(=O)Nc2nnc(-c3ccc(O)cc3)s2)nnc1C1CC1 [Example 38, 2-[(5-cyclopropyl-4-ethyl-4H-1,2,4-triazol-3-yl)sulfanyl]-N-[5-(4-hydroxyphenyl)-1,3,4-thiadiazol-2-yl]acetamide] | 81 | 7.1
CCc1nnc(SCC(=O)Nc2nnc(-c3ccc(S(C)(=O)=O)cc3)s2)n1C1CC1 [Example 39, 2-[(4-cyclopropyl-5-ethyl-4H-1,2,4-triazol-3-yl)sulfanyl]-N-[5-(4-(methylsulfonyl)phenyl)-1,3,4-thiadiazol-2-yl]acetamide] | 135 | –
CCc1nnc(SCC(=O)Nc2nnc(-c3ccc(OC)cc3)s2)n1CCCO [Example 40, 2-[(5-ethyl-4-(3-hydroxypropyl)-4H-1,2,4-triazol-3-yl)sulfanyl]-N-[5-(4-methoxyphenyl)-1,3,4-thiadiazol-2-yl]acetamide] | 168 | –
CCc1nnc(SCC(=O)Nc2nnc(-c3ccc(S(C)(=O)=O)cc3)s2)n1C [Example 41, 2-[(5-ethyl-4-methyl-4H-1,2,4-triazol-3-yl)sulfanyl]-N-[5-(4-(methylsulfonyl)phenyl)-1,3,4-thiadiazol-2-yl]acetamide] | 490 | 6.3
CCc1nnc(SCC(=O)Nc2nnc(-c3ccc(S(C)(=O)=O)cc3)s2)n1C(C)C [Example 42, 2-[(5-ethyl-4-isopropyl-4H-1,2,4-triazol-3-yl)sulfanyl]-N-[5-(4-(methylsulfonyl)phenyl)-1,3,4-thiadiazol-2-yl]acetamide] | 76 | 7.1
CCn1c(SCC(=O)Nc2nnc(-c3ccc(OCCOC)cc3)s2)nnc1C1CC1 [Example 43, 2-[(5-cyclopropyl-4-ethyl-4H-1,2,4-triazol-3-yl)sulfanyl]-N-[5-(4-(2-methoxyethoxy)phenyl)-1,3,4-thiadiazol-2-yl]acetamide] | 52 | –
CCn1c(CCOC)nnc1SCC(=O)Nc1nnc(-c2ccc(OC)cc2)s1 [Example 44, 2-[(4-ethyl-5-(2-methoxyethyl)-4H-1,2,4-triazol-3-yl)sulfanyl]-N-[5-(4-methoxyphenyl)-1,3,4-thiadiazol-2-yl]acetamide] | 457 | –
CCn1c(SCC(=O)Nc2nnc(-c3ccc(S(C)(=O)=O)cc3)s2)nnc1C1CCCC1 [Example 45, (2-[(5-cyclopentyl-4-ethyl-4H-1,2,4-triazol-3-yl)sulfanyl]-N-[5-(4-methanesulfonylphenyl)-1,3,4-thiadiazol-2-yl]acetamide)] | 40 | –
CCc1nnc(SCC(=O)Nc2nnc(-c3ccc(OC)cc3)s2)n1CCOC [Example 46, 2-[(5-ethyl-4-(2-methoxyethyl)-4H-1,2,4-triazol-3-yl)sulfanyl]-N-[5-(4-methoxyphenyl)-1,3,4-thiadiazol-2-yl]acetamide] | 112 | –
CCc1nnc(SCC(=O)Nc2nnc(-c3ccc(OC)cc3)s2)n1CCCOC [Example 47, 2-{[5-ethyl-4-(3-methoxypropyl)-4H-1,2,4-triazol-3-yl]sulfanyl}-N-[5-(4-methoxyphenyl)-1,3,4-thiadiazol-2-yl]acetamide] | 159 | –
CCn1c(CN2CCOCC2)nnc1SCC(=O)Nc1nnc(-c2ccc(OC)cc2)s1 [Example 48, 2-{[4-ethyl-5-(morpholin-4-ylmethyl)-4H-1,2,4-triazol-3-yl]sulfanyl}-N-[5-(4-methoxyphenyl)-1,3,4-thiadiazol-2-yl]acetamide] | 230 | –
CCc1nnc(SCC(=O)Nc2nnc(-c3ccccn3)s2)n1CC [Example 49, 2-[(4,5-diethyl-4H-1,2,4-triazol-3-yl)sulfanyl]-N-[5-(pyridin-2-yl)-1,3,4-thiadiazol-2-yl]acetamide] | 224 | –

From patent US10730865B2, “Compounds for modulating aquaporins” (APOGLYX AB, priority 2016, dated 2020)
